Data as given in patent US12404261B2, “Compounds and compositions for treating conditions associated with cGAS” (Novartis AG, priority 2020, dated 2025).
pIC50: −log10 of the molar value.

Biological target: human truncated cGAS enzyme (147-522 human cGAS) (Homo sapiens (Human), UniProt Q8N884)
Assay: Quantification of cGAS protein inhibition (cGAMP formation measured by LC-MS/MS)
Assay type: biochemical
Details: reported for the potential mixture of co-existing tautomers and/or racemates
Description: A reagent buffer was prepared in filtered and autoclaved water according to the following: • 50 mM Tris-buffer pH 7.5 (1 M Tris-buffer pH 7.5, Invitrogen, Cat. No. 15567-027); • 50 mM NaCl (5 M NaCl, Sodium Chloride Solution, Sigma, 59222C-); • 5 mM MgCl2 (1 M MgCl2, Sigma, M1028); • 0.1 mM ZnCl2 (Zinc Chloride [7646-85-7], powder, Cell Culture Tested, Sigma, Z-0152); and • 0.001% Tween 20 (TWEEN 20, Sigma Aldrich, P1379-).
A buffer for the cGAS enzyme was prepared in filtered and autoclaved water according to the following: • 50 mM Tris-buffer pH 7.5; • 5 mM MgCl2; and • 0.001% Tween 20.
Compounds were dispensed to a […]. The human truncated cGAS enzyme (4.2 mg/mL 147-522 human cGAS, MW 43,909 g/mol) was stored in 50 mM Tris, 500 mM NaCl, 5% (v/v) glycerol at pH 8 and diluted in the cGAS buffer enzyme shortly before use. The enzyme solution was transferred into the reagent buffer to give a final concentration of 30 nM. The reaction was started by mixing the enzyme with ISD (a 45 bp double stranded DNA, MW 27,670 g/mol, 5 mM), GTP and ATP to a final concentration of 5 μM, 0.5 mM and 0.5 mM respectively in a final volume of 10 μl. The reaction plates were then centrifuged at 1000 rpm for 1 minute and incubated at room temperature for 1 h. After 1 h of incubation, [^5Ns]-2′3′-cGAMP to a final concentration of 200 nM and 30 μL of 100% acetonitrile/0.175% of TFA were added to the reaction mixture. The plates were centrifuged at 1000 rpm for 1 minute before being sealed for 3 seconds at 170° C. using a ThermoScientific sealer (ALPS™ 50V) and an aluminum sealing cover (Pierce Seal, 4titude, Product Code: 4TI-0531).
The concentration of cGAMP was measured on a LC-MS/MS system consisting of a THERMO Dionex Ultimate LC system with a high pressure pump, an autosampler, a column heating compartment (Reinach, Switzerland) and a SCIEX Triple Quad 5500 (Framingham, MA, USA) mass spectrometer for detection. The sample plates were centrifuged for 10 minutes at 2000 rpm. Up to three plates were placed in the autosampler for injection. An aliquot of 10 μL of each sample was injected on an XBridge BEH Amide 3.5 μm, 2.1×50 mm column (P/N 186004859) with an XBridge BEH Amide 5 μm 2.1×5 mm VanGuard Cartridge (P/N 186007760) pre-column (both WATERS, MA, USA) held at 40° C. An isocratic flow of 1.0 mL/min solvent (60% ACN, 8 mM ammonium acetate, 5 mM ammonium hydroxide, 0.04% acetic acid) was applied and sprayed into the ion source of the mass spectrometers. The MS parameters were optimized based on the properties of the compounds to be detected and run in positive multi-reaction mode (MRM) based on the mass transitions. LC and MS parameters were also optimized to allow for a sample-to-sample measuring time of approximately 75 sec and a run time of 8 hours per 384-well plate. All data were analyzed with Excel; and the dose response curves were generated using the auto fitting function of XLfit. The IC50 was determined by plotting the cGAMP concentration ratio (cGAMP divided by the internal standard [^15Ns]-2′3′-cGAMP) versus the concentration of compound.

Chain of human truncated cGAS enzyme (147-522 human cGAS) (Q8N884 147-522): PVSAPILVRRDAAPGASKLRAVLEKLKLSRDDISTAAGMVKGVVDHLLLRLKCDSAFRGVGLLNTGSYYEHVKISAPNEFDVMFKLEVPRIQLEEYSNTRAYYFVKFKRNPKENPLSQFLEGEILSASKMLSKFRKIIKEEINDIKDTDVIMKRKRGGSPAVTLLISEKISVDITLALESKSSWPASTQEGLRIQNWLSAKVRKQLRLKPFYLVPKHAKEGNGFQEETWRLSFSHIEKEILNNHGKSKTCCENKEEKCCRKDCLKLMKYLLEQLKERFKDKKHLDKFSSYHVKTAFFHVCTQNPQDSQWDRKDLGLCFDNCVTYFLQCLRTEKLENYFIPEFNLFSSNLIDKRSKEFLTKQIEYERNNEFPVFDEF

SMILES	pIC50
CCOC(=O)c1nnc(-c2[nH]c3cc(Cl)c(OC)cc3c2-c2cn[nH]c2)[nH]1 [Example 28, ethyl 5-(6-chloro-5-methoxy-3-(1H-pyrazol-4-yl)-1H-indol-2-yl)-4H-1,2,4-triazole-3-carboxylate]	7.12
COC(=O)Cc1nnc(-c2[nH]c3c(Cl)c(Cl)ccc3c2-c2cn[nH]c2)[nH]1 [Example 29, methyl 2-(5-(6,7-dichloro-3-(1H-pyrazol-4-yl)-1H-indol-2-yl)-4H-1,2,4-triazol-3-yl)acetate]	6.66
COc1cc2c(-c3cn[nH]c3)c(-c3nnc(C(N)=O)[nH]3)[nH]c2cc1Cl [Example 31, 5-(6-chloro-5-methoxy-3-(1H-pyrazol-4-yl)-1H-indol-2-yl)-4H-1,2,4-triazole-3-carboxamide]	7.31
FC(F)(F)c1nnc(-c2cc3c(Cl)c(Cl)ccc3n2-c2cn[nH]c2)[nH]1 [Example 32, 4,5-dichloro-1-(1H-pyrazol-4-yl)-2-(5-(trifluoromethyl)-4H-1,2,4-triazol-3-yl)-1H-indole]	6.30
Oc1cc2c(-c3cn[nH]c3)c(-c3nnc(C(F)(F)F)[nH]3)[nH]c2cc1Cl [Example 33, 6-Chloro-3-(1H-pyrazol-4-yl)-2-(5-(trifluoromethyl)-4H-1,2,4-triazol-3-yl)-1H-indol-5-ol]	7.42
Oc1c(Cl)ccc2c(-c3cn[nH]c3)c(-c3nnc(C(F)(F)F)[nH]3)[nH]c12 [Example 34, 6-chloro-3-(1H-pyrazol-4-yl)-2-(5-(trifluoromethyl)-4H-1,2,4-triazol-3-yl)-1H-indol-7-ol]	6.02
N#Cc1nnc(-c2[nH]c3c(Cl)c(Cl)ccc3c2-c2cn[nH]c2)[nH]1 [Example 35, 5-(6,7-Dichloro-3-(1H-pyrazol-4-yl)-1H-indol-2-yl)-4H-1,2,4-triazole-3-carbonitrile]	7.11
OCc1nnc(-c2[nH]c3c(Cl)c(Cl)ccc3c2-c2cn[nH]c2)[nH]1 [Example 36, (5-(6,7-Dichloro-3-(1H-pyrazol-4-yl)-1H-indol-2-yl)-4H-1,2,4-triazol-3-yl)methanol]	6.47
OCCn1cnc(-c2[nH]c3c(Cl)c(Cl)ccc3c2-c2cn[nH]c2)n1 [Example 37, 2-(3-(6,7-dichloro-3-(1H-pyrazol-4-yl)-1H-indol-2-yl)-1H-1,2,4-triazol-1-yl)ethan-1-ol]	6.86
Clc1ccc2c(-c3cn[nH]c3)c(-c3nnc[nH]3)[nH]c2c1Cl [Example 38, 6,7-dichloro-3-(1H-pyrazol-4-yl)-2-(4H-1,2,4-triazol-3-yl)-1H-indole]	6.87
COc1cc2c(-n3ccnc3)c(-c3nnc(C(=O)N(C)C)[nH]3)n(C)c2c(F)c1Cl [Example 39, 5-(6-chloro-7-fluoro-3-(1H-imidazol-1-yl)-5-methoxy-1-methyl-1H-indol-2-yl)-N,N-dimethyl-4H-1,2,4-triazole-3-carboxamide]	7.32
COCCN(C)C(=O)c1nnc(-c2c(-n3ccnc3)c3cc(OC)c(Cl)c(F)c3n2C)[nH]1 [Example 40, 5-(6-chloro-7-fluoro-3-(1H-imidazol-1-yl)-5-methoxy-1-methyl-1H-indol-2-yl)-N-(2-methoxyethyl)-N-methyl-4H-1,2,4-triazole-3-carboxamide]	7.09
COc1cc2c(-n3ccnc3)c(-c3nnc(C(=O)N(C)CCO)[nH]3)n(C)c2c(F)c1Cl [Example 41, 5-(6-chloro-7-fluoro-3-(1H-imidazol-1-yl)-5-methoxy-1-methyl-1H-indol-2-yl)-N-(2-hydroxyethyl)-N-methyl-4H-1,2,4-triazole-3-carboxamide]	7.21
COc1cc2c(-n3ccnc3)c(-c3nnc(C(=O)N4CCOCC4)[nH]3)n(C)c2c(F)c1Cl [Example 42, (5-(6-chloro-7-fluoro-3-(1H-imidazol-1-yl)-5-methoxy-1-methyl-1H-indol-2-yl)-4H-1,2,4-triazol-3-yl)(morpholino)methanone]	7.20
COc1cc2c(-n3ccnc3)c(-c3nnc(C(=O)N4CCC(O)C4)[nH]3)n(C)c2c(F)c1Cl (centres unmarked) [Example 43, (5-(6-chloro-7-fluoro-3-(1H-imidazol-1-yl)-5-methoxy-1-methyl-1H-indol-2-yl)-4H-1,2,4-triazol-3-yl)(3-hydroxypyrrolidin-1-yl)methanone]	7.21
COc1cc2c(-n3ccnc3)c(-c3nnc(C(=O)N4CCC(O)CC4)[nH]3)n(C)c2c(F)c1Cl [Example 44, (5-(6-chloro-7-fluoro-3-(1H-imidazol-1-yl)-5-methoxy-1-methyl-1H-indol-2-yl)-4H-1,2,4-triazol-3-yl)(4-hydroxypiperidin-1-yl)methanone]	7.24
COc1cc2c(-n3ccnc3)c(-c3nnc(C(=O)N4CCCC(O)C4)[nH]3)n(C)c2c(F)c1Cl (centres unmarked) [Example 45, (5-(6-chloro-7-fluoro-3-(1H-imidazol-1-yl)-5-methoxy-1-methyl-1H-indol-2-yl)-4H-1,2,4-triazol-3-yl)(3-hydroxypiperidin-1-yl)methanone]	7.25
COc1cc2c(-n3ccnc3)c(-c3nnc(C(=O)N4CCN(C)CC4)[nH]3)n(C)c2c(F)c1Cl [Example 46, (5-(6-chloro-7-fluoro-3-(1H-imidazol-1-yl)-5-methoxy-1-methyl-1H-indol-2-yl)-4H-1,2,4-triazol-3-yl)(4-methylpiperazin-1-yl)methanone]	6.86
COc1cc2c(-n3ccnc3)c(-c3nnc(C(F)(F)F)[nH]3)n(C)c2c(F)c1Cl [Example 47, 6-chloro-7-fluoro-3-(1H-imidazol-1-yl)-5-methoxy-1-methyl-2-(5-(trifluoromethyl)-4H-1,2,4-triazol-3-yl)-1H-indole]	6.92
COc1cc2c(-n3ccnc3)c(-c3nnc(C(F)(F)F)[nH]3)[nH]c2c(F)c1Cl [Example 48, 6-chloro-7-fluoro-3-(1H-imidazol-1-yl)-5-methoxy-2-(5-(trifluoromethyl)-4H-1,2,4-triazol-3-yl)-1H-indole]	7.18
COCc1nnc(-c2c(-n3ccnc3)c3cc(OC)c(Cl)c(F)c3n2C)[nH]1 [Example 49, 6-chloro-7-fluoro-3-(1H-imidazol-1-yl)-5-methoxy-2-(5-(methoxymethyl)-4H-1,2,4-triazol-3-yl)-1-methyl-1H-indole]	6.97
COc1cc2c(-n3ccnc3)c(-c3nnc(CSC)[nH]3)n(C)c2c(F)c1Cl [Example 50, 6-Chloro-7-fluoro-3-(1H-imidazol-1-yl)-5-methoxy-1-methyl-2-(5-((methylthio)methyl)-4H-1,2,4-triazol-3-yl)-1H-indole]	7.24
COc1cc2c(-n3ccnc3)c(-c3nnc(CCO)[nH]3)n(C)c2c(F)c1Cl [Example 51, 2-(5-(6-chloro-7-fluoro-3-(1H-imidazol-1-yl)-5-methoxy-1-methyl-1H-indol-2-yl)-4H-1,2,4-triazol-3-yl)ethan-1-ol]	6.77
COCCc1nnc(-c2c(-n3ccnc3)c3cc(OC)c(Cl)c(F)c3n2C)[nH]1 [Example 52, 6-chloro-7-fluoro-3-(1H-imidazol-1-yl)-5-methoxy-2-(5-(2-methoxyethyl)-4H-1,2,4-triazol-3-yl)-1-methyl-1H-indole]	6.69
COCC(O)c1nnc(-c2c(-n3ccnc3)c3cc(OC)c(Cl)c(C#N)c3n2C)[nH]1 (centres unmarked) [Example 53, 6-chloro-2-(5-(1-hydroxy-2-methoxyethyl)-4H-1,2,4-triazol-3-yl)-3-(1H-imidazol-1-yl)-5-methoxy-1-methyl-1H-indole-7-carbonitrile]	7.18
COCc1nnc(-c2c(-n3ccnc3)c3cc(OC)c(Cl)c(C#N)c3n2C)[nH]1 [Example 54, 6-chloro-3-(1H-imidazol-1-yl)-5-methoxy-2-(5-(methoxymethyl)-4H-1,2,4-triazol-3-yl)-1-methyl-1H-indole-7-carbonitrile]	7.12
